Results from article PMC9597602, “Metal Complexes as Antifungals? From a Crowd-Sourced Compound Library to the First In Vivo Experiments” (JACS Au, 2022).
Entries after “also recorded” stand apart in the source; their conditions may differ. Read-outs that look alike come from different tables or passages of the source.

What was measured:
[1] = system: Escherichia coli ATCC 25922 FDA control strain; experiment: CO-ADD antibacterial MIC assay; type: cell-based; conditions: initial CO-ADD dose-response screening; ≥80% growth inhibition
In short: (§1)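 Mid-log cultures in cation-adjusted Mueller Hinton broth at 5 × 10^5 CFU/mL, incubated with compound 18 h at 37 °C without shaking; growth read as OD600. MIC is the lowest concentration giving ≥80% growth inhibition; two technical replicates in two independent assays (n = 4).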

[2] = system: Acinetobacter baumannii ATCC 19606 type strain; experiment: CO-ADD antibacterial MIC assay; type: cell-based; conditions: initial CO-ADD dose-response screening; ≥80% growth inhibition
In short: as §1

[3] = system: Pseudomonas aeruginosa ATCC 27853 QC control strain; experiment: CO-ADD antibacterial MIC assay; type: cell-based; conditions: initial CO-ADD dose-response screening; ≥80% growth inhibition
In short: as §1

[4] = system: Candida auris CBS12373 KCTC 17810; experiment: Antifungal MIC assay, extended panel; type: cell-based; conditions: extended panel; for MIC50 Candida auris CBS12373: 50% inhibition, MIC score 2
In short: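 Yeast was grown for 3 days at 30 °C on YPD agar. Five colonies were suspended to 1 × 10^6 to 5 × 10^6 CFU/mL, checked by OD530, diluted in YNB medium, and dispensed onto compound-loaded 384-well NBS plates at 2.5 × 10^3 CFU/mL in 50 μL. Plates were covered and incubated without shaking at 35 °C for 36 h to determine MIC.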

[5] = system: Candida auris CBS10913 JCM 15448; experiment: Antifungal MIC assay, extended panel; type: cell-based; conditions: extended panel; for MIC: read-out: MIC* Candida auris CBS10913; for MIC50 Candida auris CBS10913: 50% inhibition, MIC score 2
In short: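 Yeast strains were grown on YPD agar at 30 °C for 3 days. Five colonies were suspended to 1 × 10^6 to 5 × 10^6 CFU/mL (by OD530), diluted in YNB medium, and dispensed into compound-containing 384-well NBS plates to 2.5 × 10^3 CFU/mL in 50 μL. Covered plates were held at 35 °C for 36 h without shaking, and MIC was determined by broth dilution.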

human red blood cells = type: cell-based
In short: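 Washed human erythrocytes at 0.5 × 10^8 cells/mL incubated with compound, then centrifuged. Haemolysis read as supernatant OD405, normalised to untreated cells (0%) and 1% Triton X-100 (100%), with melittin as internal plate control.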

[6] = system: Cryptococcus deuterogattii CBS7750 VGII; Serotype B; experiment: Antifungal MIC assay, extended panel; type: cell-based; conditions: extended panel; 50% inhibition, MIC score 2
G. mellonella larvae = experiment: Galleria mellonella in vivo toxicity assay; conditions: 10 μL of the highest concentration injected, monitored 6 days
Procedure: Based on criteria of overall antifungal activity, cytotoxicity, and hemolysis as well as compound availability, we selected compounds Co1, Ag2, Eu1, Ir1, Pt1, Pt2, Pt4, Pt5, Au1, Au2, and Au4 to conduct a preliminary in vivo toxicity assay. […] The compounds were dissolved in DMSO and diluted to the highest possible final concentration (Table 3). The larvae were then monitored for 6 days for survival and health using the G. mellonella Health Index Scoring System.[111] […] For the other compounds, no detrimental effects could be observed in the larvae over the monitoring period. […] Nevertheless, factors such as the metabolism, excretion, and/or accumulation of the various metal complexes and their metabolites will still need to be studied more rigorously in rodent models if they are to be advanced into the preclinical pipeline.
The toxicity of compounds was tested in vivo using the G. mellonella model using our previously described methods,[61] Briefly, G. mellonella larvae were reared in a controlled environmental room at Macquarie University, Sydney, Australia, at 30 °C and 65% humidity with a 12-h light/dark cycle. Larvae (200–250 mg) were individually injected with 10 μL of chemical into the last right pro-leg using a 100 μL syringe (Hamilton Ltd.). Each compound was dissolved in DMSO at the maximum concentration given in Table 3 and also diluted in water to final concentrations of 100, 10, and 1 μM. We injected five larvae in triplicate for each of the four dilutions for each compound. Larvae injected with different dilutions of DMSO (10^–1, 10^–2, and 10^–3) were included as negative controls. Following injection, the larvae were incubated at 30 °C and monitored every 24 h for 6 days. Larval performance was assessed according to the G. mellonella Health Index Scoring System.[111] The experiments were repeated over three separate days for biological triplicates.

[7] = system: Candida glabrata ATCC 90030 NCCLS 84; experiment: Antifungal MIC assay, extended panel; type: cell-based; conditions: extended panel; 50% inhibition, MIC score 2
[8] = system: Candida tropicalis ATCC 750; experiment: Antifungal MIC assay, extended panel; type: cell-based; conditions: extended panel; 50% inhibition, MIC score 2
[9] = system: HEK-293 human embryonic kidney cells ATCC CRL-1573
Procedure: The cells were incubated together with the compounds for 20 h at 37 °C in 5% CO2. […] Tamoxifen (Sigma T5648) was used as internal control on each plate.

[10] = system: Cryptococcus deuterogattii ATCC 32609 VGII; experiment: Antifungal MIC assay, extended panel; type: cell-based; conditions: extended panel; 50% inhibition, MIC score 2
[11] = system: Cryptococcus neoformans H99 ATCC 208821 type strain; experiment: Antifungal MIC assay; type: cell-based; conditions: for MIC50 Cryptococcus neoformans ATCC 208821: 50% inhibition, MIC score 2
In short: (§2)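 Broth microdilution in YNB medium at a final density of 2.5 × 10^3 CFU/mL, from yeast grown 3 days on YPD agar at 30 °C; incubated 35 °C for 36 h without shaking. MIC is the lowest concentration giving ≥80% growth inhibition (CLSI M27 score 0–1); n = 4–8 from replicate independent runs.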

[12] = system: Candida glabrata ATCC 90030 NCCLS 84; experiment: Antifungal MIC assay, extended panel; type: cell-based; conditions: extended panel, second batch; ≥80 or ≥50% inhibition
Procedure: (§3) For the fungal assays, both fungi (yeast) strains were cultured for 3 days on Yeast Extract-Peptone Dextrose (YPD; Becton Dickinson 242720) agar at 30 °C. A yeast suspension of 1 × 10^6 to 5 × 10^6 CFU/mL (as determined by OD530) was prepared from five colonies from the agar plates, subsequently diluted with Yeast Nitrogen Base media (YNB; Becton Dickinson 233520), and added to each well of the compound containing plates (384-well plates, NBS; Corning CLS3640), giving a final cell density of 2.5 × 10^3 CFU/mL and a total volume of 50 μL. Plates were covered and incubated at 35 °C for 36 h without shaking. […] MIC values were recorded as the lowest concentration at which the growth was inhibited by ≥80%, equivalent to ″optically clear-to-slightly hazy″ or MIC score of 0–1 as per CLSI guidelines M27 Reference Method for Broth Dilution Antifungal Susceptibility Testing of Yeasts. […] Fluconazole (Sigma F8929) was used as internal control on each plate for all strains. All compounds were tested as two technical replicates in two to four independent biological assays, n = 4–8 final data.

[13] = system: Candida tropicalis ATCC 750; experiment: Antifungal MIC assay, extended panel; type: cell-based; conditions: extended panel, second batch; ≥80 or ≥50% inhibition
Procedure: as §3

[14] = system: Cryptococcus deuterogattii ATCC 32609 VGII; experiment: Antifungal MIC assay, extended panel; type: cell-based; conditions: extended panel, second batch; ≥80 or ≥50% inhibition
Procedure: as §3

[15] = system: Cryptococcus deuterogattii CBS7750 VGII; Serotype B; experiment: Antifungal MIC assay, extended panel; type: cell-based; conditions: extended panel, second batch; ≥80 or ≥50% inhibition
Procedure: as §3

[16] = system: methicillin-resistant Staphylococcus aureus ATCC 43300; experiment: CO-ADD antibacterial MIC assay; type: cell-based; conditions: initial CO-ADD dose-response screening; ≥80% growth inhibition
In short: as §1

[17] = system: Candida albicans ATCC 90028 NCCLS11; experiment: Antifungal MIC assay; type: cell-based; conditions: for MIC Candida albicans ATCC 90028 / MIC50 Candida albicans ATCC 90028: extended panel; for MIC Candida albicans ATCC 90028: second batch, ≥80 or ≥50% inhibition; for MIC50 Candida albicans ATCC 90028: 50% inhibition, MIC score 2
In short: as §2

[18] = second batch, ≥80 or ≥50% inhibition
[19] = initial CO-ADD screening, 1 h, 10% hemolysis
[20] = ranges obtained upon retesting, new batch
[21] = read-out: HEK293 CC50, ranges obtained upon retesting, new batch
[22] = extended panel, second batch, ≥80 or ≥50% inhibition
[23] = initial CO-ADD dose-response screening, ≥80% growth inhibition

Compound	MIC Ec [1]	MIC Ab [2]	MIC Pa [3]	MIC50 Candida auris CBS12373 [4] [µM]	MIC [5, 18] [µM]	MIC50 Candida auris CBS10913 [5] [µM]	RBC HC10 (human red blood cells; [19])	RBC HC10 (human red blood cells; [20]) [µM]	MIC50 Cryptococcus deuterogattii CBS7750 [6] [µM]	toxicity (G. mellonella larvae)	MIC50 Candida glabrata ATCC 90030 [7] [µM]	MIC50 Candida tropicalis ATCC 750 [8] [µM]	HEK CC50 ([9]; initial CO-ADD screening, 20 h) [µg/mL]	CC50 [9, 21] [µM]	MIC50 Cryptococcus deuterogattii ATCC 32609 [10] [µM]	MIC Cryptococcus neoformans ATCC 208821 [11, 22] [µM]	MIC50 Cryptococcus neoformans ATCC 208821 ([11]; extended panel) [µM]	MIC Cryptococcus deuterogattii ATCC 32609 [14] [µM]	MIC [15] [µM]	MIC Candida auris CBS12373 [4, 18] [µM]	also measured
c1ccc([PH]([Au][S]c2ccccn2)(c2ccccc2)c2ccccc2)cc1 [Au2]	>32 µg/mL	>32 µg/mL	>32 µg/mL	0.098 to 0.195	0.195	0.098 to 1.56	>32 µg/mL	> 200	0.049 to 1.56	showed signs of toxicity; also recorded: toxic at 1 mM	> 200	≥ 200	>32	0.8 to 200	0.049 to 0.195	0.024 to 0.195	0.024 to 0.195	0.049 to 0.391	0.098	–	MIC ([4]; second batch, ≥80 or ≥50% inhibition, read-out: MIC* Candida auris CBS12373): 0.195 µM; MIC [12]: >200 µM; MIC [13]: >200 µM
CS(=O)(=O)[O][Pd][c]1ccccc1-c1ccccc1N.CS(=O)(=O)[O][Pd][c]1ccccc1-c1ccccc1N [Pd2]	>20 µM	>20 µM	>20 µM	0.024 to 0.049	–	0.024 to 0.098	>20 µM	0.2 to 3	≤ 0.006	–	0.012 to 0.195	0.195 to 0.391	–	38 to 53	0.024 to 0.098	–	≤0.006 to 0.024	0.024 to 0.049	0.098	0.024 to 0.049	MIC MRSA (Sa) [16]: >20 µM; MIC Candida auris CBS10913 [5, 18]: 0.024 to 0.098 µM; MIC Candida albicans ATCC 90028 [17]: 0.05 to 0.2 µM; MIC50 Candida albicans ATCC 90028 [17]: 0.049 to 0.195 µM; MIC Ca [17, 23]: 1.25 µM; CC50 ([9]; read-out: HEK CC50, initial CO-ADD screening, 20 h): > 20 µM; MIC ([11]; extended panel, second batch, ≥80 or ≥50% inhibition, read-out: MIC* Cryptococcus neoformans ATCC 208821): 0.024 µM; MIC Cn [11, 23]: 0.31 µM; MIC Candida glabrata ATCC 90030 [12]: 0.049 to 0.195 µM; MIC Candida tropicalis ATCC 750 [13]: 0.195 to 0.391 µM
c1cnc([S][Au][PH](c2ccco2)(c2ccco2)c2ccco2)nc1 [Au1]	–	–	–	0.098 to 0.391	0.098	0.098 to 0.195	–	90 to 200	0.024 to 0.098	nontoxic	0.098 to 0.391	0.049 to 0.391	>32	0.1 to 0.6	0.024 to 0.049	0.098 to 0.195	0.098 to 0.195	0.098 to 0.391	–	0.098 to 0.391	MIC Candida albicans ATCC 90028 [17]: 0.049 to 0.391 µM; MIC50 Candida albicans ATCC 90028 [17]: 0.049 to 0.391 µM; MIC Candida glabrata ATCC 90030 [12]: 0.098 to 0.781 µM; MIC Candida tropicalis ATCC 750 [13]: 0.049 to 0.391 µM; MIC Cryptococcus deuterogattii CBS7750 [15]: 0.024 to 0.391 µM
